Converted amounts (≈) assume the structure as drawn. Read-outs that look alike come from different tables or passages of the source.
Legend:
Test in all cases: antimicrobial activity, serial dilution method on agar plate
Assay type in all cases: cell-based
[1] = test system: Pseudomonas aeruginosa ATCC 10145
Experimental: (§1) The antimicrobial activity of the following test compounds on various test organisms listed below was determined by the serial dilution method on agar plate (Heart Infusion agar produced by Difco Co.) (see CHEMOTHERAPY 22, pp. 1126-1128 (1974)), and the minimum inhibitory concentrations (mcg/ml) obtained are shown in Table 1 below.
(§2) A sample of each test organism was prepared so that the population of the organism was 1×10^8 cells/ml (O.D. 660 mμ=0.07 to 0.16) and 1×10^6 cells/ml (which was obtained by diluting the above 1×10^8 cells/ml preparation).

[2] = test system: Shigella Sonnei EW 33; details: inoculum 1 × 10^8 cells/ml, read-out: Minimum Inhibitory Concentration
Experimental: as §1, §2

[3] = test system: Pseudomonas aeruginosa E-2
Experimental: as §1, §2

[4] = test system: Streptococcus pyogenes IID S-23
Experimental: as §1, §2

[5] = test system: Serattia marcescens IFO 12648
Experimental: as §1, §2

[6] = test system: Salmonella typhi 0-901 (NCTC 8393); details: Salmonella enterica
Experimental: as §1, §2

[7] = test system: Pseudomonas aeruginosa NCTC 10490
Experimental: as §1, §2

[8] = test system: Staphylococcus aureus FDA 209 P
Experimental: as §1, §2

[9] = test system: Escherichia Coli NIHJ JC-2 (IFO 12734); details: Escherichia coli, read-out: Minimum Inhibitory Concentration
Experimental: as §1, §2

[10] = test system: Proteus rettgeri NIH 96; details: Providencia rettgeri
Experimental: as §1, §2

[11] = test system: Klebsiella pneumoniae
Experimental: as §1, §2

[12] = ATCC10145, inoculum 1 × 10^8 cells/ml, read-out: Minimum Inhibitory Concentration
[13] = E2, inoculum 1 × 10^8 cells/ml, read-out: Minimum Inhibitory Concentration
[14] = IIDS23, read-out: Minimum Inhibitory Concentration, inoculum 1 × 10^8 cells/ml
[15] = inoculum 1 × 10^8 cells/ml, read-out: Minimum Inhibitory Concentration
[16] = read-out: Minimum Inhibitory Concentration, inoculum 1 × 10^8 cells/ml
[17] = NCTC10490, inoculum 1 × 10^8 cells/ml, read-out: Minimum Inhibitory Concentration
[18] = FDA209, inoculum 1 × 10^8 cells/ml, read-out: Minimum Inhibitory Concentration
[19] = NIH96, inoculum 1 × 10^8 cells/ml, read-out: Minimum Inhibitory Concentration
[20] = IIDS23, inoculum 1 × 10^8 cells/ml, read-out: Minimum Inhibitory Concentration

Compound | MIC [1, 12] [µg/mL] | MIC [2] [µg/mL] | MIC [3, 13] [µg/mL] | MIC [4, 14] [µg/mL] | MIC [5, 15] [µg/mL] | MIC [6, 16] [µg/mL] | MIC [7, 17] [µg/mL] | MIC [8, 18] [µg/mL] | MIC ([9]; inoculum 1 × 10^8 cells/ml) [µg/mL] | MIC [10, 19] [µg/mL] | MIC [11, 15] [µg/mL] | MIC [4, 20] [µg/mL] | also measured
CC1CCc2c(N3CCN(CC(F)(F)F)CC3)c(Cl)cc3c(=O)c(C(=O)O)cn1c23 (centres unmarked) [c] | 3.13 (≈ 7.05 µM) | 1.56 (≈ 3.51 µM) | 6.25 (≈ 14.1 µM) | 1.56 (≈ 3.51 µM) | 0.39 (≈ 0.879 µM) | 0.2 (≈ 0.451 µM) | 0.78 (≈ 1.76 µM) | 0.1 (≈ 0.225 µM) | 0.39 (≈ 0.879 µM) | 0.39 (≈ 0.879 µM) | 0.39 (≈ 0.879 µM) |  | 
CC1CCc2c(N3CCN(C(=O)C(F)(F)C(F)(F)F)CC3)c(Cl)cc3c(=O)c(C(=O)O)cn1c23 (centres unmarked) [d] | 1.56 (≈ 3.07 µM) | 0.78 (≈ 1.54 µM) | 6.25 (≈ 12.3 µM) |  | 0.2 (≈ 0.394 µM) | 0.1 (≈ 0.197 µM) | 3.13 (≈ 6.16 µM) | 1.56 (≈ 3.07 µM) | 0.39 (≈ 0.768 µM) | 0.2 (≈ 0.394 µM) | 0.39 (≈ 0.768 µM) | 12.5 (≈ 24.6 µM) | 
CC1CCc2c(N3CCN(C(=O)C(F)(F)C(F)(F)C(F)(F)F)CC3)c(Cl)cc3c(=O)c(C(=O)O)cn1c23 (centres unmarked) [e] |  | 0.78 (≈ 1.4 µM) |  | 6.25 (≈ 11.2 µM) |  |  |  |  |  |  |  |  | MIC ([1]; ATCC10145, read-out: Minimum Inhibitory Concentration, inoculum 1 × 10^8 cells/ml): 1.56 µg/mL (≈ 2.8 µM); MIC ([3]; E2, read-out: Minimum Inhibitory Concentration, inoculum 1 × 10^8 cells/ml): 6.25 µg/mL (≈ 11.2 µM); MIC [5, 16]: 0.2 µg/mL (≈ 0.359 µM); MIC [6, 15]: 0.2 µg/mL (≈ 0.359 µM); MIC ([7]; NCTC10490, read-out: Minimum Inhibitory Concentration, inoculum 1 × 10^8 cells/ml): 3.13 µg/mL (≈ 5.61 µM); MIC ([8]; FDA209, read-out: Minimum Inhibitory Concentration, inoculum 1 × 10^8 cells/ml): 3.13 µg/mL (≈ 5.61 µM); MIC [9]: 0.39 µg/mL (≈ 0.699 µM); MIC ([10]; NIH96, read-out: Minimum Inhibitory Concentration, inoculum 1 × 10^8 cells/ml): 0.2 µg/mL (≈ 0.359 µM); MIC [11, 16]: 0.39 µg/mL (≈ 0.699 µM)
CC1CCc2c(N3CCN(CCO)CC3)c(F)cc3c(=O)c(C(=O)O)cn1c23 (centres unmarked) [f] | 6.25 (≈ 16 µM) | 0.78 (≈ 2 µM) | 12.5 (≈ 32.1 µM) |  | 0.39 (≈ 1 µM) | 0.39 (≈ 1 µM) | 12.5 (≈ 32.1 µM) | 0.78 (≈ 2 µM) | 0.39 (≈ 1 µM) | 0.2 (≈ 0.514 µM) | 0.78 (≈ 2 µM) | 3.13 (≈ 8.04 µM) | 
COc1ccc(CN2CCN(c3c(Cl)cc4c(=O)c(C(=O)O)cn5c4c3CCC5C)CC2)cc1 (centres unmarked) [g] | 6.25 (≈ 13 µM) | 1.56 (≈ 3.24 µM) | 12.5 (≈ 25.9 µM) |  | 0.39 (≈ 0.809 µM) | 0.78 (≈ 1.62 µM) | 12.5 (≈ 25.9 µM) | 0.78 (≈ 1.62 µM) | 0.78 (≈ 1.62 µM) | 0.1 (≈ 0.207 µM) | 0.78 (≈ 1.62 µM) | 3.13 (≈ 6.49 µM) | 
C=CCN1CCN(c2c(Cl)cc3c(=O)c(C(=O)O)cn4c3c2CCC4C)CC1 (centres unmarked) [h] | 12.5 (≈ 31.1 µM) | 1.56 (≈ 3.88 µM) | 12.5 (≈ 31.1 µM) |  | 0.78 (≈ 1.94 µM) | 0.78 (≈ 1.94 µM) | 12.5 (≈ 31.1 µM) | 0.78 (≈ 1.94 µM) | 0.78 (≈ 1.94 µM) | 0.2 (≈ 0.498 µM) | 0.78 (≈ 1.94 µM) | 3.13 (≈ 7.79 µM) | 
C#CCN1CCN(c2c(Cl)cc3c(=O)c(C(=O)O)cn4c3c2CCC4C)CC1 (centres unmarked) [i] | 12.5 (≈ 31.3 µM) | 1.56 (≈ 3.9 µM) | 25 (≈ 62.5 µM) | 1.56 (≈ 3.9 µM) | 0.78 (≈ 1.95 µM) | 0.78 (≈ 1.95 µM) | 12.5 (≈ 31.3 µM) | 0.39 (≈ 0.975 µM) |  | 0.2 (≈ 0.5 µM) | 0.78 (≈ 1.95 µM) |  | MIC [9]: 1.56 µg/mL (≈ 3.9 µM)
